Activity calls are given as the source filed them.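 Rule for the calls: active = compounds giving half or more protection of infected cells from virus-caused growth loss, again on retest; inactive = the rest.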 Where a SMILES comes first, the peptide text is derived from it. Bridges are numbered along the chain shown (N, C = ends). [ ]: non-standard residue; d: D form. Orn = NCCC[CH](N)C(=O)O
Test system: CEM cells HIV-1 protection, formazan growth assay
Experiment: NCI AIDS Antiviral Assay
Settings: for IC50: measured here: growth of uninfected CEM cells
Outline: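 Steps: treat uninfected and HIV-1-infected human CEM cells at five drug levels; quantify growth by soluble formazan; retest any compound reaching 50% protection; classify actives from the retest.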

Row | Compound | EC50 | IC50 | outcome
1 | COc1ccc(CC2(O)C3CC4CCC2C4C3)cc1 (stereo not given) | > 200 µM | 87.1 µM | –
2 | Nc1c(S(=O)(=O)c2ccc(Cl)cc2)c2nc3ccccc3nc2n2ccnc12 | 151 µM | > 200 µM | –
3 | NC1=NC2(CS1)CSC(N)=N2 | > 263 µM | > 263 µM | –
4 | Cc1ccc(N2C=[N+](C)c3ccc(C)cc3C2)cc1 | > 200 µM | 33.9 µM | –
5 | CCC1(CC)SCc2nc3ccccc3n21 | > 200 µM | 63.1 µM | –
6 | CCC(C)C1NC(=O)C2CCCN2C(=O)CNC(=O)C(C)NC(=O)C(Cc2ccccc2)NC(=O)C(C(C)C)NC1=O (stereo not given) (cyclo(GPIVFA); configuration not given here) | – | – | inactive
7 | O=S1(c2ccccc2)=NC(Nc2ccccc2)=Nc2ccccc21 (stereo not given) | > 36.3 µM | 30.2 µM | –
8 | CNC(=O)C(C)C1C(=O)/C(=C(O)/C=C\C(C)=C\C(C)C2OC3(C)OC(C=CC34CO4)C2C)C(=O)N1C1CCC(O)C(C)O1 (stereo not given) | > 31.6 µM | > 31.6 µM | –
9 | COc1ccc(/C=C2/CSC/C(=C/c3ccc(OC)c(OC)c3)C2=O)cc1OC | > 9.12 µM | 4.9 µM | –
10 | O=C(O)/C(Cl)=C(\Cl)C(=O)Nc1ccccc1 | – | – | inactive
11 | Cc1ccc(C)c(N2C(=O)C(=O)C(c3nc4ccccc4o3)/C(=N/N)C2=O)c1 (stereo not given) | – | – | inactive
12 | COc1ccc(OC)c(NCC(=O)Nn2cnc3ccc(S(=O)(=O)Nc4cc(OC)ccc4OC)cc3c2=O)c1 | > 200 µM | 33.9 µM | –
13 | COc1ccccc1NC(=O)/C(=C/n1c(=S)[nH]c2cc(C)ccc21)C(C)=O | > 200 µM | 151 µM | –
14 | CC12CCC(C(Br)C1=O)C2(C)CS(=O)(=O)O (stereo not given) | > 200 µM | > 200 µM | –
15 | COc1cc(Br)c(/C(=C\c2ccccc2N)C(=O)O)cc1OC | – | – | inactive
16 | COc1cccc(C=C2N=C(c3ccccc3)N(n3c(-c4ccccc4)nc4ccccc4c3=O)C2=O)c1 | > 200 µM | 37.2 µM | –
17 | CC1(C)OC2CC3COC(=O)C3CC2O1 (stereo not given) | > 1170 µM | > 1170 µM | –
18 | CC1(C)OCC(C2OC(=O)C(OCc3ccccc3)=C2OCc2ccccc2)O1 (stereo not given) | > 200 µM | > 200 µM | –

Row | Compound | EC50 | IC50 | outcome
19 | O=C1c2cccc3cc([N+](=O)[O-])cc(c23)C(=O)N1Nc1ccc([N+](=O)[O-])cc1[N+](=O)[O-] | > 200 µM | 9.77 µM | –
20 | O=C1NC(=S)N/C1=C\c1ccc(Cl)cc1 | > 200 µM | 105 µM | –
21 | c1ccc2nocc2c1 | > 2090 µM | 1100 µM | –
22 | CCOC(=O)N1CCN(c2c(C)nc(C)[nH]c2=O)CC1 | > 200 µM | > 200 µM | –
23 | CC1(CO)COC(C)(C)OC1 | > 1550 µM | 1410 µM | –
24 | CC(=O)c1ccc2c(c1)N(CCCN1CCN(CCO)CC1)c1ccccc1S2 | > 200 µM | 10.2 µM | –
25 | N=c1c2ccccc2nc2oc3cc([N+](=O)[O-])ccc3n12 | > 195 µM | 138 µM | –
26 | Cc1ccc(S(=O)(=O)N2CCCCCC2)cc1 | > 200 µM | > 100 µM | –
27 | CN(C)CCNc1ccc2c(=O)n(CCN(C)C)c(=O)n3c4ccc(N)cc4c(=O)c1c23 | > 200 µM | 0.0631 µM | –
28 | NCCCCCC(=O)O | > 200 µM | > 200 µM | –
29 | NC(=O)C1CC(=O)NCCCC(NC(=O)C(N)Cc2ccc(O)cc2)C(=O)NC(Cc2ccccc2)C(=O)N1 (stereo not given) (H-Y[Orn]FD-NH2; lactam 2-4; configuration not given here) | > 100 µM | > 100 µM | –
30 | O=c1cc2n(c(=O)[nH]1)C1OC(C(O)C1O)[C@H]2CCO (stereo not given in full) | – | – | inactive
31 | CC(C)(C)C1CC[C@H]2c3c([nH]c4ccc(Br)cc34)[C@H]3C(=O)N(c4ccccc4)C(=O)[C@H]3[C@H]2C1 (stereo not given in full) | > 7.24 µM | > 7.24 µM | –
32 | CCOC(=O)C(=CN1C/C(=C/C(C)=C/c2ccccc2)SC1=S)C(=O)OCC | > 100 µM | 18.2 µM | –
33 | CC(=O)Nc1ccc(C(=O)NN2C(=O)C(Cl)C2c2ccc(O)cc2)cc1 (stereo not given) | > 200 µM | > 200 µM | –
34 | O=C1C=CC2(C=C1)CCC(=O)O2 | 2.95 µM | 158 µM | –
35 | COCCOC(=O)C1=C(O)c2ccccc2S(=O)(=O)N1C | > 794 µM | 562 µM | –
